Values quoted from earlier work in Sander's compilation of Henry's law constants (doi:10.1093/bja/45.3.294).

Assay: Henry solubility constant Hcp at 310 K (mol/(m3 Pa))
Conditions: reference: Allott et al. (1973); cited value

Compound	Henry solubility constant Hcp at 310 K
FC(F)OC(Cl)C(F)(F)F (stereo not given) [1-chloro-2,2,2-trifluoroethyl difluoromethyl ether]	0.00024
FC(F)OC(F)(F)C(F)Cl (stereo not given) [2-chloro-1,1,2-trifluoroethyl difluoromethyl ether]	0.0003
C=COC=C [divinyl ether]	0.00054

Assay: Henry solubility constant Hcp at 298.15 K (mol/(m3 Pa))
Conditions: reference: Allott et al. (1973); cited value

Henry solubility constant Hcp	Compound
0.00017	FC(Br)C(F)(F)F (stereo not given) [1-bromo-1,2,2,2-tetrafluoroethane]
0.00053	FC(F)(F)C(Cl)Br (stereo not given) [1-bromo-1-chloro-2,2,2-trifluoroethane]
0.003	COC(F)(F)C(Cl)Cl [2,2-dichloro-1,1-difluoro-1-methoxyethane]
0.00055	C=COCC(F)(F)F [(2,2,2-trifluoroethoxy)-ethene]
0.00073	CCCl [chloroethane]
2.5e-05	[Kr] [krypton]
4.5e-05	[Xe] [xenon]

Further lines, the compound ahead of its results:

Compound	Henry solubility constant Hcp
C1CC1 [cyclopropane]	0.00011
CCOCC [diethyl ether]	0.0096
[N-]=[N+]=O [dinitrogen monoxide]	0.00025
C=C [ethene]	4.6e-05
ClC=C(Cl)Cl [trichloroethene]	0.0011
